Data as given in paper PMC10846865, “The Blood-Brain Barrier: Implications for Experimental Cancer Therapeutics” (Annual review of cancer biology, 2023).

Experiments:
[1] = Spatial drug imaging by MALDI-MSI (drug distribution in tissues); conditions: 10 mg/kg, 30'; DHB matrix; 12 µm-thick sections, MALDI MSI 12 Tesla FT-ICR, 100 µm spatial resolution; Agar Lab
[2] = system: PI3K pathway; set-up: method as in Wen et al. 2019b; conditions: ref Wen et al. 2019b, cited from earlier work
[3] = set-up: method as in Mittapalli et al. 2013; conditions: ref Mittapalli et al. 2013; cited from earlier work
[4] = system: CNS metastases; set-up: method as in Long et al. 2012, Ng et al. 2022; conditions: ref Long et al. 2012, Ng et al. 2022; cited from earlier work
[5] = system: glioblastoma; set-up: method as in Iorgulescu et al. 2021; conditions: preclinical studies, ref Iorgulescu et al. 2021; cited from earlier work
[6] = cited from earlier work
[7] = cited from earlier work; remark: listed apart in the source
[8] = system: recurrent glioblastoma; conditions: cited from earlier work
[9] = system: newly diagnosed glioblastoma; set-up: method as in Gilbert et al. 2014; conditions: patients with newly diagnosed glioblastoma; ref Gilbert et al. 2014; cited from earlier work

Question: With CNCc1ccc(-c2[nH]c3cc(F)cc4c3c2CCNC4=O)cc1 [Rucaparib] as the compound, how does the “Drug detection on brain by MALDI or LESA” value [1] read?
Answer: Drug not detected on brain by MALDI or LESA

Question: With Nc1cc(C(F)(F)F)c(-c2cc(N3CCOCC3)nc(N3CCOCC3)n2)cn1 [buparlisib] as the compound, how does the “inhibition of the PI3K pathway (molecular response)” value ([2]; pharmacokinetic measures paired with molecular response) read?
Answer: not potent enough to effectively inhibit the PI3K pathway

Question: And the unbound tumor-to-plasma ratio [2]?
Answer: high

Question: Which “distribution across an intact BBB” value [3] does the source give for CC(C)(C)c1nc(-c2cccc(NS(=O)(=O)c3c(F)cccc3F)c2F)c(-c2ccnc(N)n2)s1 [dabrafenib] here?
Answer: limited distribution across an intact BBB

Question: What about the “response in patients with CNS metastases” value [4] of the same compound?
Answer: clinically significant response rates

Question: With C[C@@H]1C[C@H]2[C@@H]3CCC4=CC(=O)C=C[C@]4(C)[C@@]3(F)[C@@H](O)C[C@]2(C)[C@@]1(O)C(=O)CO [dexamethasone] as the compound, how does the “effect on clinical benefit of immune checkpoint blockade” value [5] read?
Answer: limit the clinical benefit of immune checkpoint blockade in glioblastoma in a dose-dependent manner

Question: With CN(Cc1cnc2nc(N)nc(N)c2n1)c1ccc(C(=O)N[C@@H](CCC(=O)O)C(=O)O)cc1 [methotrexate] as the compound, how does the “therapeutic window, intrathecal treatment” value ([6]; intrathecal treatment of hematological malignancies, ref Kwong et al. 2009, Clement & Holle 2017) read?
Answer: narrow therapeutic window

Question: Which “Kp,uu (unbound drug levels in blood and cerebrospinal fluid)” value ([7]; blood vs cerebrospinal fluid, ref Heideman et al. 1989, 1993) does the source give for S=P(N1CC1)(N1CC1)N1CC1 [thiotepa] here?
Answer: ~ 1

Question: What about the half-life ([7]; rapidly metabolized, ref Heideman et al. 1989, 1993) of the same compound?
Answer: less than 2 hours

Question: What about the dose-limiting toxicity ([7]; ref Dunkel et al. 1998) of the same compound?
Answer: myelosuppression

Question: What about the “apparent brain permeability (Papp)” value ([7]; ref Heideman et al. 1989, 1993) of the same compound?
Answer: high

Question: With CC[C@]1(O)C[C@H]2CN(CCc3c([nH]c4ccccc34)[C@@](C(=O)OC)(c3cc4c(cc3OC)N(C=O)[C@H]3[C@@](O)(C(=O)OC)[C@H](OC(C)=O)[C@]5(CC)C=CCN6CC[C@]43[C@@H]65)C2)C1 [vincristine] as the compound, how does the “toxicity of inadvertent administration into the CSF” value ([6]; ref Dyer 2001, Chotsampancharoen et al. 2016) read?
Answer: fatalities due to severe neurotoxicity

Question: With bevacizumab as the compound, how does the “delivery of radiolabeled temozolomide as measured by PET imaging” value ([8]; in vivo) read?
Answer: decreased delivery of radiolabeled temozolomide

Question: What about the vascular permeability ([8]; not told) of the same compound?
Answer: decrease vascular permeability

Question: And the overall survival [9]?
Answer: no difference
